# Test results reported in patent publication US20240196899A1, “PESTICIDAL MIXTURES” (priority 2021, published 2024).
# Read-outs that look alike come from different tables or passages of the source.
# How the values were obtained:
# [1] = system: B. tabaci; assay: Insecticidal % control against B. tabaci, Colby synergy; assay type: in vivo, Bemisia tabaci; conditions: Table 7, 72 hours after treatment
# Description: (§1) Colby's method is used to determine if synergy exists for a combination of active ingredients. According to Colby, the expected action (E) of active ingredients A+B is:
# (§2) [formula] • where E=expected efficacy, A and B=the efficacy of two active ingredients A and B at a given dose.
# (§3) When the percentage of control observed (O) for the combination is greater than the expected (E) percentage, there is a synergistic effect. The synergism ratio (R) is calculated as the ratio between the […].
# (§4) The insecticidal compounds A (Novaluron) and B (mix partner) are formulated as equivalent suspension concentrates to eliminate the effects of differing formulation inerts on biological activity. Efficacy of the insecticidal compositions is evaluated with reference to a scale of 0% to 100% in comparison with untreated control plots. 0 means no damage and 100 means complete destruction of the harmful pests.
# (§5) Likewise following experimentations were done on other mixtures of novaluron on various pests, the result of which are summarized in the below tables: […]
# [2] = system: Spodoptera littoralis larvae; assay: Larval mortality of S. littoralis fed on treated castor bean leaves (tank mix novaluron + methoxyfenozide), Colby synergy; assay type: in vivo; conditions: Spodoptera littoralis, in Ricinus communis, Table 1, 0.01 mg a.i./L of each active
# Description: as §1, §2, §3
# A representative experiment was conducted to evaluate the insecticidal control of novaluron, a compound II, namely methoxyfenozide as well as a mixture of novaluron and methoxyfenozide against Spodoptera littoralis larvae.
# (§6) The experiments were conducted by applying commercially available compositions of Novaluron (Rimon®) and methoxyfenozide (Runner®) alone or together. The compositions were diluted with water to the stated concentration of the active compound.
# (§7) The following active ingredients and their mixtures were evaluated: • Novaluron: 0.01 mg a.i./liter • Methoxyfenozide: 0.01 mg a.i./liter • Novaluron+Methoxyfenozide 0.01 mg a.i./liter+0.01 mg a.i./liter
# (§8) To evaluate the insecticidal control of novaluron and methoxyfenozide alone and in a binary mixture, castor bean leaves were treated with the above listed treatments. The treated leaves were exposed for 4-day feeding to 3rd-instar Spodoptera littoralis and the larvae were exposed for additional 4 days on untreated leaves. Larval mortality was determined at day 4 and 8. The treatments were composed of 3-5 replicates of 10 larvae each.
# [3] = system: Spodoptera littoralis larvae; assay: Larval weight gain (LWG) of S. littoralis on treated castor bean leaves; assay type: in vivo; conditions: Table 3
# Description: as §6, §7, §8
# Larval weight gain (LWG) was also measured in order to determine the effectiveness of the mixture of novaluron and methoxyfenozide when compared to the solo application of novaluron and methoxyfenozide.
# Table 3 below summarizes the larval weight gain (LWG) (compared to the control), that was determined 4 days after treatment for the mixture of novaluron and methoxyfenozide.
# [4] = system: T. absoluta; assay: Insecticidal % control against T. absoluta, Colby synergy; assay type: in vivo, Tuta absoluta; conditions: 72 hours after treatment
# Description: as §1, §2, §3, §4, §5
# [5] = system: Cotton Leafworm, S. littoralis; assay: Insecticidal % control against Cotton Leafworm, S. littoralis, Colby synergy; assay type: in vivo, Spodoptera littoralis; conditions: 72 hours after treatment
# Description: as §1, §2, §3, §4, §5
# [6] = system: M. persicae; assay: Insecticidal % control against M. persicae, Colby synergy; assay type: in vivo, Myzus persicae
# Description: as §1, §2, §3, §4, §5
# [7] = system: T. urticae; assay: Insecticidal % control against T. urticae, Colby synergy; assay type: in vivo, Tetranychus urticae
# Description: as §1, §2, §3, §4, §5
# [8] = system: A. gossypii; assay: Insecticidal % control against A. gossypii, Colby synergy; assay type: in vivo, Aphis gossypii; conditions: 96 hours after treatment
# Description: as §1, §2, §3, §4, §5
# [9] = system: S. frugiperda; assay: Insecticidal % control against S. frugiperda, Colby synergy; assay type: in vivo, Spodoptera frugiperda; conditions: 120 hours after treatment
# Description: as §1, §2, §3, §4, §5
# [10] = system: F. occidentalis; assay: Insecticidal % control against F. occidentalis, Colby synergy; assay type: in vivo, Frankliniella occidentalis
# Description: as §1, §2, §3, §4, §5
# [11] = system: H. halys; assay: Insecticidal % control against H. halys, Colby synergy; assay type: in vivo, Halyomorpha halys; conditions: Table 20 B; 144 hours after treatment; 5 ppm
# Description: as §1, §2, §3, §4, §5
compound,measurement,setting,value
C[C@]1(COC(=O)C2CC2)[C@@H]2C[C@H](O)[C@@]3(C)Oc4cc(-c5cccnc5)oc(=O)c4[C@H](O)[C@@H]3[C@@]2(C)CC[C@@H]1OC(=O)C1CC1 [Afidopyropen],Observed % control (O),[1]; 7 ppm,35.1%
same,Observed % control (O),[1]; 35 ppm,49.8%
COc1cccc(C(=O)NN(C(=O)c2cc(C)cc(C)c2)C(C)(C)C)c1C [Methoxyfenozide],mortality at 0.01 µg/mL,"[2]; 96 h, 3rd-instar larvae, 4-day feeding on treated leaves, day 4, read-out: Larval mortality, % (observed) 4 d",4.1%
same,mortality at 0.01 µg/mL,"[2]; 4 days on treated then 4 days on untreated leaves, day 8, read-out: Larval mortality, % (observed) 8 d",12%
same,LWG % rel. Control,"[3]; 4 days after treatment, 0.01 mg a.i./L of each active",93 % rel. Control
same,effect on the weight gain of the Spodoptera littoralis larvae,[3]; applied alone,neither novaluron nor methoxyfenozide alone have any effect on the weight gain
same,Observed % control (O),"[4]; Table 2, 3 ppm",16.7%
Dicloromezotiaz,Observed % control (O),"[5]; Table 11, 12 ppm",0%
CCOC(=O)OC1=C(c2cc(C)ccc2C)C(=O)N[C@]12CC[C@@H](OC)CC2 [Spirotetramat],Observed % control (O),"[6]; Table 6 A, 72 hours after treatment, 100 ppm",68%
same,Observed % control (O),"[6]; Table 6 B, 7 days after treatment, 100 ppm",85.7%
same,Observed % control (O),"[7]; Table 6 C, 48 hours after treatment, 600 ppm",8.0%
same,Observed % control (O),"[7]; Table 6 D, 72 hours after treatment, 6 ppm",6.0%
same,Observed % control (O),"[7]; Table 6 D, 72 hours after treatment, 600 ppm",14.0%
same,Observed % control (O),"[7]; Table 6 E, 7 days after treatment, 600 ppm",16.2%
CN(C(=O)c1cc(-c2cnn(-c3c(Cl)cc(C(F)(C(F)(F)F)C(F)(F)F)cc3Cl)c2)cnc1Cl)C1CC1 [Nicofluprole],Observed % control (O),"[5]; Table 21, 12 ppm",0%
CCN(C(=O)CCSCCC(F)(F)F)c1cn(-c2cccnc2)nc1Cl [Tyclopyrazoflor],Observed % control (O),"[5]; Table 13, 12 ppm",12.5%
Cc1cc(C)c(C2=C(OC(=O)CC(C)(C)C)C3(CCCC3)OC2=O)c(C)c1 [Spiromesifen],Observed % control (O),"[6]; Table 19 B, 7 days after treatment, 5 ppm",58.3%
same,Observed % control (O),"[8]; Table 19 A, 500 ppm",75.3%
CNC(=O)c1cc(C#N)cc(C)c1NC(=O)c1cc(Cn2nnc(C(F)(F)F)n2)nn1-c1ncccc1Cl [Tetraniliprole],Observed % control (O),"[9]; Table 10 A, 0.001 ppm",0%
same,Observed % control (O),"[9]; Table 10 A, 0.01 ppm",0%
same,Observed % control (O),"[5]; Table 10 B, 0.004 ppm",7.5%
same,Observed % control (O),"[5]; Table 10 B, 0.02 ppm",17.5%
same,Observed % control (O),"[5]; Table 10 B, 0.1 ppm",95%
CCOC(=O)CC(SP(=S)(OC)OC)C(=O)OCC (centres unmarked) [Malathion],Observed % control (O),"[10]; Table 18 B, 72 hours after treatment, 5 ppm",6.0%
same,Observed % control (O),"[10]; Table 18 B, 72 hours after treatment, 500 ppm",80.0%
same,Observed % control (O),"[8]; Table 18 A, 100 ppm",81.7%
Spinetoram,Observed % control (O),"[4]; Table 5 C, 1 ppm",50%
same,Observed % control (O),"[4]; Table 5 C, 3 ppm",33.3%
same,Observed % control (O),"[4]; Table 5 C, 10 ppm",83.3%
same,Observed % control (O),"[10]; Table 5 D, 48 hours after treatment, 3.5 ppm",18.0%
same,Observed % control (O),"[10]; Table 5 D, 48 hours after treatment, 350 ppm",78.0%
same,Observed % control (O),"[10]; Table 5 E, 72 hours after treatment, 3.5 ppm",22.0%
same,Observed % control (O),"[10]; Table 5 E, 72 hours after treatment, 350 ppm",82.0%
same,Observed % control (O),"[10]; Table 5 F, 7 days after treatment, 3.5 ppm",30.0%
same,Observed % control (O),"[10]; Table 5 F, 7 days after treatment, 350 ppm",82.0%
same,Observed % control (O),"[9]; Table 5 A, 0.01 ppm",20%
same,Observed % control (O),"[9]; Table 5 A, 0.025 ppm",30%
same,Observed % control (O),"[9]; Table 5 A, 0.05 ppm",45%
same,Observed % control (O),"[5]; Table 5 B, 0.004 ppm",0%
same,Observed % control (O),"[5]; Table 5 B, 0.1 ppm",80%
CN/C(=N/CC1CCOC1)N[N+](=O)[O-] (centres unmarked) [Dinotefuran],Observed % control (O),"[5]; Table 16, 0.04 ppm",25%
CCN1OCC(NC(=O)c2ccc(C3=NOC(c4cc(Cl)c(F)c(Cl)c4)(C(F)(F)F)C3)cc2C)C1=O (centres unmarked) [Isocycloseram],Observed % control (O),"[5]; Table 8, 12 ppm",12.5%
N#Cc1nn(-c2c(Cl)cc(C(F)(F)F)cc2Cl)c(N)c1[S+]([O-])C(F)(F)F (centres unmarked) [Fipronil],Observed % control (O),"[10]; Table 20 C, 48 hours after treatment, 1 ppm",66.0%
same,Observed % control (O),"[10]; Table 20 D, 72 hours after treatment, 1 ppm",70.0%
same,Observed % control (O),"[10]; Table 20 D, 72 hours after treatment, 100 ppm",90.0%
same,Observed % control (O),"[10]; Table 20 E, 7 days after treatment, 1 ppm",84.0%
same,Observed % control (O),"[5]; Table 20 A, 0.002 ppm",0%
same,Observed % control (O),"[5]; Table 20 A, 0.02 ppm",5%
same,Observed % control (O),[11],87.5%
CCOCn1c(-c2ccc(Cl)cc2)c(C#N)c(Br)c1C(F)(F)F [Chlorfenapyr],Observed % control (O),"[7]; Table 14 A, 48 hours after treatment, 2.4 ppm",64%
same,Observed % control (O),"[7]; Table 14 A, 48 hours after treatment, 24 ppm",79%
same,Observed % control (O),"[7]; Table 14 B, 72 hours after treatment, 2.4 ppm",78%
same,Observed % control (O),"[7]; Table 14 B, 72 hours after treatment, 24 ppm",86%
same,Observed % control (O),"[7]; Table 14 C, 7 days after treatment, 2.4 ppm",86%
same,Observed % control (O),"[7]; Table 14 C, 7 days after treatment, 24 ppm",94%
CC(c1ccc(C(F)(F)F)nc1)S(C)(=O)=NC#N (centres unmarked) [Sulfoxaflor],Observed % control (O),"[6]; Table 15 A, 48 hours after treatment, 0.5 ppm",64%
same,Observed % control (O),"[6]; Table 15 B, 72 hours after treatment, 0.5 ppm",70%
same,Observed % control (O),"[6]; Table 15 B, 72 hours after treatment, 2.5 ppm",82%
COP(=O)(NC(C)=O)SC (centres unmarked) [Acephate],Observed % control (O),"[6]; Table 17 A, 72 hours after treatment, 2 ppm",66%
same,Observed % control (O),"[6]; Table 17 B, 7 days after treatment, 2 ppm",75.0%
O=C(N=c1ccccn1Cc1ccc(Cl)nc1)C(F)(F)F [Flupyrimin],Observed % control (O),"[5]; Table 12, 12 ppm",0%
Spinosad,Observed % control (O),"[10]; Table 4 A, 48 hours after treatment, 5.3 ppm",2.0%
same,Observed % control (O),"[10]; Table 4 B, 72 hours after treatment, 5.3 ppm",4.0%
same,Observed % control (O),"[10]; Table 4 B, 72 hours after treatment, 530 ppm",32.0%
same,Observed % control (O),"[10]; Table 4 C, 7 days after treatment, 5.3 ppm",32.0%
same,Observed % control (O),"[10]; Table 4 C, 7 days after treatment, 530 ppm",60.0%
CN(C(=O)c1ccccc1)c1cccc(C(=O)Nc2c(Br)cc(C(F)(C(F)(F)F)C(F)(F)F)cc2C(F)(F)F)c1F [Broflanilide],Observed % control (O),"[9]; Table 9, 0.001 ppm",10%
same,Observed % control (O),"[9]; Table 9, 0.01 ppm",20%
